≈ marks a conversion by molar mass, not a printed value. Bridge positions count the residues as written; N and C are the ends. Square brackets hold non-standard residues; d marks the D form. Peptide text beside a SMILES is read from it. * marks the point of attachment. Lauroyl = CCCCCCCCCCCC(=O)*; Decanoyl = CCCCCCCCCC(=O)*; dOrn = NCCC[C@@H](N)C(=O)O; Octanoyl = CCCCCCCC(=O)*; Orn = NCCC[C@H](N)C(=O)O
How the values were obtained:
[1] = test system: Klebsiella pneumoniae; assay: Antibacterial activity against Klebsiella pneumoniae ATCC 700603 incubated for 18 to 24 hrs by broth microdilution method; format: functional; conditions: time 18-24 hrs
[2] = test system: Erythrocyte; assay: Hemolytic activity in mouse red blood cell assessed as hemolysis incubated for 1 hr; format: toxicity, cell-based
[3] = test system: Escherichia coli; assay: Antibacterial activity against Escherichia coli ATCC 25922 incubated for 18 to 24 hrs by broth microdilution method; format: functional; conditions: time 18-24 hrs
[4] = test system: Acinetobacter baumannii; assay: Antibacterial activity against Acinetobacter baumannii ATCC 19606 incubated for 18 to 24 hrs by broth microdilution method; format: functional; conditions: time 18-24 hrs
[5] = test system: Staphylococcus aureus; assay: Antibacterial activity against Staphylococcus aureus ATCC 25923 incubated for 18 to 24 hrs by broth microdilution method; format: functional; conditions: time 18-24 hrs
[6] = test system: Bacillus subtilis; assay: Antibacterial activity against Bacillus subtilis ATCC 23857 incubated for 18 to 24 hrs by broth microdilution method; format: functional; conditions: time 18-24 hrs
[7] = test system: Pseudomonas aeruginosa; assay: Antibacterial activity against Pseudomonas aeruginosa ATCC 27853 incubated for 18 to 24 hrs by broth microdilution method; format: functional; conditions: time 18-24 hrs
[8] = test system: Staphylococcus epidermidis; assay: Antibacterial activity against Staphylococcus epidermidis ATCC 12228 incubated for 18 to 24 hrs by broth microdilution method; format: functional; conditions: time 18-24 hrs
[9] = test system: Enterococcus faecalis; assay: Antibacterial activity against Enterococcus faecalis ATCC 29212 incubated for 18 to 24 hrs by broth microdilution method; format: functional; conditions: time 18-24 hrs

Row | MIC [1] | MIC [3] | MIC [4] | MIC [5] | MIC [6] | MIC [7] | MIC [8] | MIC [9] | Compound | MHC [2]
1 | 8 µM (≈ 12.5 µg/mL) | 4 µM (≈ 6.25 µg/mL) | 8 µM (≈ 12.5 µg/mL) | 64 µM (≈ 100 µg/mL) | 32 µM (≈ 50 µg/mL) | 4 µM (≈ 6.25 µg/mL) | 32 µM (≈ 50 µg/mL) | 64 µM (≈ 100 µg/mL) | CCC(C)CCC(=O)N[C@H](CC(N)=O)C(=O)N[C@H](Cc1ccc(O)cc1)C(=O)N[C@H](Cc1c[nH]c2ccccc12)C(=O)N[C@H](CCCCN)C(=O)N[C@@H](CCCCN)C(=O)NCC(=O)N[C@H](CCCCN)C(=O)N[C@@H](Cc1c[nH]c2ccccc12)C(=O)N[C@@H]1C(=O)N[C@@H]([C@@H](C)CC)C(=O)NCC(=O)N[C@@H](CO)C(=O)O[C@@H]1C (stereo not given in full) | 128 µM
2 | 8 µM (≈ 11.8 µg/mL) | 4 µM (≈ 5.91 µg/mL) | 32 µM (≈ 47.3 µg/mL) | 64 µM (≈ 94.6 µg/mL) | 16 µM (≈ 23.6 µg/mL) | 4 µM (≈ 5.91 µg/mL) | 8 µM (≈ 11.8 µg/mL) | 64 µM (≈ 94.6 µg/mL) | CCC(C)CCC(=O)N[C@H](CC(N)=O)C(=O)N[C@H](Cc1ccc(O)cc1)C(=O)N[C@H](Cc1c[nH]c2ccccc12)C(=O)N[C@H](CCN)C(=O)N[C@@H](CCN)C(=O)NCC(=O)N[C@H](CCN)C(=O)N[C@@H](Cc1c[nH]c2ccccc12)C(=O)N[C@@H]1C(=O)N[C@@H]([C@@H](C)CC)C(=O)NCC(=O)N[C@@H](CO)C(=O)O[C@@H]1C (stereo not given in full) | 128 µM
3 | 16 µM (≈ 25 µg/mL) | 8 µM (≈ 12.5 µg/mL) | 16 µM (≈ 25 µg/mL) | 32 µM (≈ 50 µg/mL) | 16 µM (≈ 25 µg/mL) | 8 µM (≈ 12.5 µg/mL) | 16 µM (≈ 25 µg/mL) | 64 µM (≈ 100 µg/mL) | CCCCCCCCCC(=O)N[C@H](CCCN)C(=O)N[C@H](Cc1ccc(O)cc1)C(=O)N[C@H](Cc1c[nH]c2ccccc12)C(=O)N[C@H](CCCN)C(=O)N[C@@H](CCCN)C(=O)NCC(=O)N[C@H](CCCN)C(=O)N[C@@H](Cc1c[nH]c2ccccc12)C(=O)N[C@@H]1C(=O)N[C@@H]([C@@H](C)CC)C(=O)NCC(=O)N[C@@H](CO)C(=O)O[C@@H]1C | 128 µM
4 | 2 µM (≈ 3.15 µg/mL) | 8 µM (≈ 12.6 µg/mL) | 16 µM (≈ 25.2 µg/mL) | 32 µM (≈ 50.5 µg/mL) | 4 µM (≈ 6.31 µg/mL) | 1 µM (≈ 1.58 µg/mL) | 16 µM (≈ 25.2 µg/mL) | > 128 µM | CCC(C)CCC(=O)N[C@H](CCCN)C(=O)N[C@H](Cc1ccc(O)cc1)C(=O)N[C@H](Cc1c[nH]c2ccccc12)C(=O)N[C@H](CCCN)C(=O)N[C@@H](CCCN)C(=O)N[C@@H](CCCN)C(=O)N[C@H](CCCN)C(=O)N[C@@H](Cc1c[nH]c2ccccc12)C(=O)N[C@@H]1C(=O)N[C@@H]([C@@H](C)CC)C(=O)NCC(=O)N[C@@H](CO)C(=O)O[C@@H]1C (stereo not given in full) | 128 µM
5 | 2 µM (≈ 3.12 µg/mL) | 2 µM (≈ 3.12 µg/mL) | 2 µM (≈ 3.12 µg/mL) | 16 µM (≈ 25 µg/mL) | 4 µM (≈ 6.25 µg/mL) | 2 µM (≈ 3.12 µg/mL) | 4 µM (≈ 6.25 µg/mL) | 32 µM (≈ 50 µg/mL) | CCCCCCCCCC(=O)N[C@H](CC(N)=O)C(=O)N[C@H](Cc1ccc(O)cc1)C(=O)N[C@H](Cc1c[nH]c2ccccc12)C(=O)N[C@H](CCCN)C(=O)N[C@@H](CCCN)C(=O)NCC(=O)N[C@H](CCCN)C(=O)N[C@@H](Cc1c[nH]c2ccccc12)C(=O)N[C@@H]1C(=O)N[C@@H]([C@@H](C)CC)C(=O)NCC(=O)N[C@@H](CO)C(=O)O[C@@H]1C (Decanoyl-[dN][dY][dW][dOrn][Orn]G[dOrn]WTIGS; ester 9-C) | 8 µM
6 | 8 µM (≈ 12.7 µg/mL) | 8 µM (≈ 12.7 µg/mL) | 4 µM (≈ 6.36 µg/mL) | 16 µM (≈ 25.4 µg/mL) | 4 µM (≈ 6.36 µg/mL) | 2 µM (≈ 3.18 µg/mL) | 4 µM (≈ 6.36 µg/mL) | 16 µM (≈ 25.4 µg/mL) | CCCCCCCCCCCC(=O)N[C@H](CC(N)=O)C(=O)N[C@H](Cc1ccc(O)cc1)C(=O)N[C@H](Cc1c[nH]c2ccccc12)C(=O)N[C@H](CCCN)C(=O)N[C@@H](CCCN)C(=O)NCC(=O)N[C@H](CCCN)C(=O)N[C@@H](Cc1c[nH]c2ccccc12)C(=O)N[C@@H]1C(=O)N[C@@H]([C@@H](C)CC)C(=O)NCC(=O)N[C@@H](CO)C(=O)O[C@@H]1C (Lauroyl-[dN][dY][dW][dOrn][Orn]G[dOrn]WTIGS; ester 9-C) | 4 µM
7 | 4 µM (≈ 6.14 µg/mL) | 2 µM (≈ 3.07 µg/mL) | 4 µM (≈ 6.14 µg/mL) | 32 µM (≈ 49.1 µg/mL) | 8 µM (≈ 12.3 µg/mL) | 2 µM (≈ 3.07 µg/mL) | 16 µM (≈ 24.5 µg/mL) | 64 µM (≈ 98.2 µg/mL) | CCCCCCCC(=O)N[C@H](CC(N)=O)C(=O)N[C@H](Cc1ccc(O)cc1)C(=O)N[C@H](Cc1c[nH]c2ccccc12)C(=O)N[C@H](CCCN)C(=O)N[C@@H](CCCN)C(=O)NCC(=O)N[C@H](CCCN)C(=O)N[C@@H](Cc1c[nH]c2ccccc12)C(=O)N[C@@H]1C(=O)N[C@@H]([C@@H](C)CC)C(=O)NCC(=O)N[C@@H](CO)C(=O)O[C@@H]1C (Octanoyl-[dN][dY][dW][dOrn][Orn]G[dOrn]WTIGS; ester 9-C) | 64 µM
8 | 16 µM | 16 µM | 8 µM | 16 µM | 8 µM | 8 µM | 16 µM | 32 µM | CCC(C)CCC(=O)N[C@H](CC(N)=O)C(=O)N[C@H](Cc1ccc(-c2ccccc2)cc1)C(=O)N[C@H](Cc1c[nH]c2ccccc12)C(=O)N[C@H](CCCN)C(=O)N[C@@H](CCCN)C(=O)NCC(=O)N[C@H](CCCN)C(=O)N[C@@H](Cc1c[nH]c2ccccc12)C(=O)N[C@@H]1C(=O)N[C@@H]([C@@H](C)CC)C(=O)NCC(=O)N[C@@H](CO)C(=O)O[C@@H]1C (mixture of isomers) | 8 µM
9 | 32 µM | 16 µM | 32 µM | > 128 µM | 16 µM | 2 µM | 8 µM | > 128 µM | CCC(C)CCC(=O)N[C@H](CC(N)=O)C(=O)N[C@H](C)C(=O)N[C@H](Cc1c[nH]c2ccccc12)C(=O)N[C@H](CCCN)C(=O)N[C@@H](CCCN)C(=O)NCC(=O)N[C@H](CCCN)C(=O)N[C@@H](Cc1c[nH]c2ccccc12)C(=O)N[C@@H]1C(=O)N[C@@H]([C@@H](C)CC)C(=O)NCC(=O)N[C@@H](CO)C(=O)O[C@@H]1C (mixture of isomers) | 128 µM
10 | 16 µM | 32 µM | 32 µM | 128 µM | 32 µM | 4 µM | 16 µM | > 128 µM | CCC(C)CCC(=O)N[C@H](CC(N)=O)C(=O)N[C@H](Cc1ccc(O)cc1)C(=O)N[C@H](Cc1c[nH]c2ccccc12)C(=O)N[C@H](CN)C(=O)N[C@@H](CN)C(=O)NCC(=O)N[C@H](CN)C(=O)N[C@@H](Cc1c[nH]c2ccccc12)C(=O)N[C@@H]1C(=O)N[C@@H]([C@@H](C)CC)C(=O)NCC(=O)N[C@@H](CO)C(=O)O[C@@H]1C (mixture of isomers) | 128 µM
11 | 8 µM | 8 µM | 8 µM | 32 µM | 8 µM | 4 µM | 16 µM | 32 µM | CCC(C)CCC(=O)N[C@H](CC(N)=O)C(=O)N[C@H](Cc1ccc2ccccc2c1)C(=O)N[C@H](Cc1c[nH]c2ccccc12)C(=O)N[C@H](CCCN)C(=O)N[C@@H](CCCN)C(=O)NCC(=O)N[C@H](CCCN)C(=O)N[C@@H](Cc1c[nH]c2ccccc12)C(=O)N[C@@H]1C(=O)N[C@@H]([C@@H](C)CC)C(=O)NCC(=O)N[C@@H](CO)C(=O)O[C@@H]1C (mixture of isomers) | 8 µM
12 | 16 µM | 16 µM | 8 µM | 16 µM | 8 µM | 8 µM | 16 µM | 32 µM | CCC(C)CCC(=O)N[C@H](CC(N)=O)C(=O)N[C@H](Cc1ccc(C(C)(C)C)cc1)C(=O)N[C@H](Cc1c[nH]c2ccccc12)C(=O)N[C@H](CCCN)C(=O)N[C@@H](CCCN)C(=O)NCC(=O)N[C@H](CCCN)C(=O)N[C@@H](Cc1c[nH]c2ccccc12)C(=O)N[C@@H]1C(=O)N[C@@H]([C@@H](C)CC)C(=O)NCC(=O)N[C@@H](CO)C(=O)O[C@@H]1C (mixture of isomers) | 16 µM
13 | 4 µM | 4 µM | 8 µM | 64 µM | 16 µM | 4 µM | 2 µM | 64 µM | CCC(C)CCC(=O)N[C@H](CC(N)=O)C(=O)N[C@H](Cc1ccc(O)cc1)C(=O)N[C@H](Cc1c[nH]c2ccccc12)C(=O)N[C@H](CCCNC(=N)N)C(=O)N[C@@H](CCCNC(=N)N)C(=O)NCC(=O)N[C@H](CCCNC(=N)N)C(=O)N[C@@H](Cc1c[nH]c2ccccc12)C(=O)N[C@@H]1C(=O)N[C@@H]([C@@H](C)CC)C(=O)NCC(=O)N[C@@H](CO)C(=O)O[C@@H]1C (mixture of isomers) | 128 µM
14 | 8 µM | 8 µM | 8 µM | 32 µM | 8 µM | 4 µM | 16 µM | 64 µM | CCC(C)CCC(=O)N[C@H](CC(N)=O)C(=O)N[C@H](Cc1ccc(C)cc1)C(=O)N[C@H](Cc1c[nH]c2ccccc12)C(=O)N[C@H](CCCN)C(=O)N[C@@H](CCCN)C(=O)NCC(=O)N[C@H](CCCN)C(=O)N[C@@H](Cc1c[nH]c2ccccc12)C(=O)N[C@@H]1C(=O)N[C@@H]([C@@H](C)CC)C(=O)NCC(=O)N[C@@H](CO)C(=O)O[C@@H]1C (mixture of isomers) | 32 µM
15 | 16 µM | 8 µM | 32 µM | 128 µM | 16 µM | 4 µM | 64 µM | > 128 µM | CCC(C)CCC(=O)N[C@H](CC(N)=O)C(=O)N[C@H](Cc1ccc(N)cc1)C(=O)N[C@H](Cc1c[nH]c2ccccc12)C(=O)N[C@H](CCCN)C(=O)N[C@@H](CCCN)C(=O)NCC(=O)N[C@H](CCCN)C(=O)N[C@@H](Cc1c[nH]c2ccccc12)C(=O)N[C@@H]1C(=O)N[C@@H]([C@@H](C)CC)C(=O)NCC(=O)N[C@@H](CO)C(=O)O[C@@H]1C (mixture of isomers) | 128 µM

— ChEMBL document CHEMBL5512645, “A novel antimicrobial peptide with broad-spectrum and exceptional stability derived from the natural peptide Brevicidine” (Eur J Med Chem, 2024)
